Here are results for one molecule from patent US8039505B2, “Compounds for modulating T-cells” (University of Utah Research Foundation, priority 2007, dated 2011).

For the assay, the system named is cell cycle in zebrafish embryos. Briefly: Cell cycle profiles in zebrafish embryos (propidium iodide, flow cytometry). The format is in vivo. The settings on record: zebrafish embryos incubated from 4 hours post fertilization overnight, DNA content by flow cytometry. On the procedure:
FIG. 2 is a group of cell cycle profiles of active compounds tested in 24 hour zebrafish embryos. Specifically, embryos incubated with E3 fishwater (panel A), hydroxyurea (panel B), compound C4 (panel C), and compound C3 (panel D) are shown. After overnight incubation, single cell solution of embryos was prepared and incubated with propidium iodide. Samples were then subjected to flow cytometry to determine DNA content (X axis). Small arrowheads below the X-axis are placed beneath the diploid (G1) n=2 peak, and the tetraploid (G2/M) n=4 peaks. Cells between these two peaks are in S phase. Cells to the left of the G1 peak (sub G1 peak) have lost chromosomes (n<2), and are presumably dying (indicated as % debris in the right hand legend of each panel). Relative numbers of cells (Y-axis) in the different phases of the cell cycle are given on the right side of each panel.
All of these compounds were tested for effects on the cell cycle in zebrafish embryos. Zebrafish embryos were incubated at 4 hours post fertilization with compounds or controls. After overnight incubation in compounds, single cell solution of embryos was prepared and incubated with propidium iodide. Samples were then subjected to flow cytometry to determine DNA content. […] Examples are depicted in FIG. 2.
In FIG. 2, embryos incubated with (A) E3 fishwater, (B) hydroxyurea, (C) compound C4, and (D) C3 are shown. Diploid (G1, n=2) and tetraploid (G2/M, n=4) peaks are identified on the X-axis. Small arrowheads below the X-axis are placed beneath the dipoid (G1) n=2 peak, and the tetraploid (G2/M) n=4 peaks. Cells between these two peaks are in S phase. Cells to the left of the G1 peak (sub G1 peak) have lost chromosomes (n<2) and are presumably dying (indicated as % debris in the right hand legend of each panel). Relative numbers of cells (Y axis) in the different phases of the cell cycle are given on the right side of each panel.
(In general: Flow cytometry measures light scatter and fluorescence of single cells or particles in a stream.)

Turning to `NC(=O)NO` [hydroxyurea, reference compound], the “Effect on the cell cycle” value is reported as “S phase arrest”.
